The values below are quoted from earlier work in patent publication US20070243563A1, “Aflatoxin-albumin adduct measurement and the uses thereof” (priority 2000, published 2007).

Series [1] relates to rats. Particulars: rat, in vivo.
In series [2] the test system is humans.

For Aflatoxin B1 [AFB1], in series [1], the TD50 was 9.3×10^−4 mg/kg per day and the “carcinogenic potency relative to benzo(a)pyrene” value is reported as 1000 times. Besides, in series [2], the IARC carcinogen classification result was “Group 1 carcinogens”.
